Values joined by “and” are separate entries in the source; they are usually repeats but may differ in a detail not shown here. Identical values can stand only once.
Legend:
C-Jun = assay: Human phosphokinase array, c-Jun; format: cell-based
Excerpt: The kinome tree representation (Figure 7C), which was generated by raising the Kinase Score cut-off to >1.2, confirmed that, unlike tirbanibulin and our prototype molecule KX1-136, 4e’s effects were more observable on kinases other than the Src family such as the Eph and TEC families. […] Therefore, we screened compound 4e using the Human Phospho-Kinase Array® kit from R&D systems (Minneapolis, MN, USA). In this system, 35 phosphorylated YK and serine-threonine kinase (STK) enzymes in the untreated (control) and treated (test) HL60 cell lysates were captured on nitrocellulose membrane, pre-spotted with phosphokinase-specific capture antibodies, and then visualized by detection antibody cocktails (Figure 8). The difference in the spot intensity between untreated (control) and treated cells is proportional to change in the amount of the phosphorylated protein induced by 4e.
The phosphorylation profile of 48 kinases was performed using the Proteome Profiler Human Phospho-Kinase Antibody Array Kit by R&D Systems (Minneapolis, MN, USA) according to the protocol. Briefly, the total cellular protein was extracted using the Lysis buffer and was quantified using Bio-Rad DC Protein Assay kit (Hercules, CA, USA). Nitrocellulose membrane set (A&B), pre-spotted with kinase-specific capture antibodies, were first blocked with Array Buffer-1 at RT for 30 min on a rocking platform shaker. Approximately 600 µg of protein concentrate was diluted in the buffer provided and was added onto the membrane set, and the membranes were incubated overnight at 4°C in an 8-well plate. Subsequently, membranes were washed with Wash Buffer and incubated with appropriate Detection Antibody cocktails for 2 h at RT. Streptavadin-HRP (1:2000) was added onto membranes and incubated for 30 min at RT. Membranes were washed, and Chemiluminescent Detection Reagents 1&2 were applied in equal volumes for detection. The signals were detected on C-DiGit®Blot Scanner (LI-COR, Odyssey Imaging Systems, Lincoln, Nebraska, USA) using Image Studio 5.0 software.

Ros = target: T1, Ros (Homo sapiens, UniProt P08922); assay: PamChip tyrosine kinase microarray, Ros; format: biochemical; details: 4e 0.1 µM, HL60 lysate
T1 construct: endogenous in cells; host or cells: HL60 lysate
Experimental: (§1) The changes in kinase activities induced by treatment with 4e were monitored within the HL60 cell lines using PamGene’s (Hertogenbosch, Netherlands) PamChip® peptide microarray profiler, which quantifies the activities of 144 tyrosine kinases (YK) ([29], [30]) (Figure 7). Results are provided as a log fold change (LFC) heatmap and Mean Kinase Statistic. From the LFC it is apparent that compound 4e, at a concentration of 0.1 µM, induced sizable changes to the activity of several kinases within the cell signaling YK profile (Figure 7A).
(§2) An Upstream Kinase tool was used to generate a putative list of kinases responsible for phosphorylating the phospho-sites on the PamChip (Figure 7B) ([31]). It is an interpretation and is highly dependent on the contents of the underlying phosphorylation databases. A Kinase Score was used for ranking kinases based on their significance and specificity in terms of the set of peptides used for the corresponding kinase. Kinase Statistics indicates the overall change of the peptide set that represents the kinase. Kinase statistics value <0 indicates lower kinase activity in the compound spiked lysate and vice versa ([32], [33]). Table 5 lists the 20 most changed kinases within treated HL60 cell lysates by 0.1 μM 4e, ranked according to their Kinase Score.
(§3) The compound 4e was spiked into HL60 cell lysate at different concentrations (0.001, 0.01, 0.1, 1, 10 and 50 μM). In addition, DMSO was also spiked in HL60 lysate at low concentration (2% v/v) as control. Samples were profiled on PamGene’s Tyrosine Kinase (PTK) arrays in technical replicates, covering a total of 196 phosphorylation sites. Frozen HL60 cultured cell pellet was sent to PamGene. At PamGene, cells were lysed using a lysis buffer and proteases inhibitors cocktail. Protein concentration was measured using standard Bradford assay as per PamGene SOPs. These lysates were further used for generating the PTK activity profiles. For spiking, 4e was received as powder form and dissolved in DMSO at PamGene facility followed by storing at -20°C in small aliquots. PamGene used its in-house bioinformatics toolbox in combination with other methods to generate hypotheses of signaling pathways.

Tyro3/Sky = target: T2, Tyro3/Sky (Homo sapiens, UniProt Q06418); assay: PamChip tyrosine kinase microarray, Tyro3/Sky; format: biochemical; details: 4e 0.1 µM, HL60 lysate
T2 construct: endogenous in cells; host or cells: HL60 lysate
T2 sequence (Q06418 41-890): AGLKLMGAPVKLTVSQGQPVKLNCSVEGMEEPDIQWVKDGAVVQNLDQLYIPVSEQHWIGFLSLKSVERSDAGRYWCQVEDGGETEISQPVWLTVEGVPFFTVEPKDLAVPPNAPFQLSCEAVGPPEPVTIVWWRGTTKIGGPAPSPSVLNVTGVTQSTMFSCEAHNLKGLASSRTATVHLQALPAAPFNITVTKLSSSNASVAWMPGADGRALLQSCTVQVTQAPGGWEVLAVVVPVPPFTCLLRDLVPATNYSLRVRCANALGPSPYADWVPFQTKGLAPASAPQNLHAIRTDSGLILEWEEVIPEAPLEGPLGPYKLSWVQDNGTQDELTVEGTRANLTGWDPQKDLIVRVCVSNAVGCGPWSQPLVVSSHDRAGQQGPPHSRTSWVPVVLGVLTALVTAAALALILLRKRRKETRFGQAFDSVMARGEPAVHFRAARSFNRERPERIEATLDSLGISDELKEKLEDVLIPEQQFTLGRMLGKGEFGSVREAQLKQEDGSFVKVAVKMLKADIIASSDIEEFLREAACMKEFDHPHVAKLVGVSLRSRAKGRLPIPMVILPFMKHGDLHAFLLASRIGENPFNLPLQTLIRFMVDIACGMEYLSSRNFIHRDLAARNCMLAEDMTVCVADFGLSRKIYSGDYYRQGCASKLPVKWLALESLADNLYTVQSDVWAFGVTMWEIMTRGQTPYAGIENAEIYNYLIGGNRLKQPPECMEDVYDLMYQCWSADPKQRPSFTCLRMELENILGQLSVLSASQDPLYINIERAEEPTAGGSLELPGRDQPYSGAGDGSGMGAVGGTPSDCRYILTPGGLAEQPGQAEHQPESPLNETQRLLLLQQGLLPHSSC
Experimental: as §1, §2, §3

T1 sequence (P08922 28-2347): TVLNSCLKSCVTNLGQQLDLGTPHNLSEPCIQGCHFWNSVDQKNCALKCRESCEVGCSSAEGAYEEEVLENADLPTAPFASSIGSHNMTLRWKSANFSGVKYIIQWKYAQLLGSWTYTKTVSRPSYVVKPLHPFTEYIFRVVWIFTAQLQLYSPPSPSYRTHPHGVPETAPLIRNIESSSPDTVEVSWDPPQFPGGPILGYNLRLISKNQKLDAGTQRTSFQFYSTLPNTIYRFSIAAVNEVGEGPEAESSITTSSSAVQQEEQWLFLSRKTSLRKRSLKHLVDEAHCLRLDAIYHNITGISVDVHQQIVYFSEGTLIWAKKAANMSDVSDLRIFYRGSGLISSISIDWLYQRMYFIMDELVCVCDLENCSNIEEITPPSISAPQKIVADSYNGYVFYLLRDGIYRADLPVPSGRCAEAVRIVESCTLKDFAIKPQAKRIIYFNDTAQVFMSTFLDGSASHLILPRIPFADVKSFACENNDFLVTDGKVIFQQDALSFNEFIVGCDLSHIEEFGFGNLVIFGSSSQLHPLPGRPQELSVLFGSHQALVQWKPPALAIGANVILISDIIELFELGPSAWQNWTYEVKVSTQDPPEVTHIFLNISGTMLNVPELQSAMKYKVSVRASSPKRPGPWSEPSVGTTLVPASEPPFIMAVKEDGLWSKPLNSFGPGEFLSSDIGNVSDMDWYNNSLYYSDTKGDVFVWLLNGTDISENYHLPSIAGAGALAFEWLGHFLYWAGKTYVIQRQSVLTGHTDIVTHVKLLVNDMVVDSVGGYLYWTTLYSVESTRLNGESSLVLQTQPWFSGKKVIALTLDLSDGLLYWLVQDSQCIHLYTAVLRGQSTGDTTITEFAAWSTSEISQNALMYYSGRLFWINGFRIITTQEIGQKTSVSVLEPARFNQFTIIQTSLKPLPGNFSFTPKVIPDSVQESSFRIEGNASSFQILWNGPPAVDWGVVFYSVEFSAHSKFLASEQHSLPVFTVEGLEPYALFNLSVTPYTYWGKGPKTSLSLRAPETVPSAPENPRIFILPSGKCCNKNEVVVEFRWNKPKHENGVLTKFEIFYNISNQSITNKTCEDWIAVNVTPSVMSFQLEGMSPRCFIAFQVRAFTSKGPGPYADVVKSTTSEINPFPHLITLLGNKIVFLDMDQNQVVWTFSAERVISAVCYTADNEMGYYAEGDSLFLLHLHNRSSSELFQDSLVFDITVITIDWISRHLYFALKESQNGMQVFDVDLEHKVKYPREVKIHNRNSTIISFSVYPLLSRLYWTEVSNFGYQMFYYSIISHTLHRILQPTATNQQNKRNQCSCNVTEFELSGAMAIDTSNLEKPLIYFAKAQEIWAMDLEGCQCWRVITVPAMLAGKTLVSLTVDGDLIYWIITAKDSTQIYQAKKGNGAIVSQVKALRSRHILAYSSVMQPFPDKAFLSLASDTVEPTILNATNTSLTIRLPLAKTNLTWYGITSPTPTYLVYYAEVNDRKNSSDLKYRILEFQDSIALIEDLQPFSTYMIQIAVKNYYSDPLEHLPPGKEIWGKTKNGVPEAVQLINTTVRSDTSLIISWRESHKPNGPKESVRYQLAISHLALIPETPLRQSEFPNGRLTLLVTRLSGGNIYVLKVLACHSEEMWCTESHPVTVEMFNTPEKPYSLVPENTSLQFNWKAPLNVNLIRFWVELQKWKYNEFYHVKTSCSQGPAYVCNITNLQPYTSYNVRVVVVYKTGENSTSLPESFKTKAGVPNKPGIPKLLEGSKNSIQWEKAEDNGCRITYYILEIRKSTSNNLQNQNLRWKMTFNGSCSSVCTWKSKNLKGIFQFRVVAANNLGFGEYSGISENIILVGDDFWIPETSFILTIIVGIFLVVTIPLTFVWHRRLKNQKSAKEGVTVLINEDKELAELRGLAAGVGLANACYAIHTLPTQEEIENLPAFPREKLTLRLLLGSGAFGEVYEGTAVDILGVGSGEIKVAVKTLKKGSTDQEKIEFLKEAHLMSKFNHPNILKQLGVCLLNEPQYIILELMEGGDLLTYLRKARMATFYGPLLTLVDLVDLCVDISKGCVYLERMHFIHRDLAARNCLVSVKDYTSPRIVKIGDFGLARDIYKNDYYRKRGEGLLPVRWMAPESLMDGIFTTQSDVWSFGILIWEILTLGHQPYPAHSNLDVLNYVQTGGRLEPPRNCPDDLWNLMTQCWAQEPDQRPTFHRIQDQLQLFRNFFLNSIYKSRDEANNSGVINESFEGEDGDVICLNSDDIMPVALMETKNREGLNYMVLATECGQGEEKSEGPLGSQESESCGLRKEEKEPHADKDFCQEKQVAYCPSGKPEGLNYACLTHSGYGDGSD

O=C(Cc1ccc(NC(=O)c2cccc(Cl)c2)cc1)NCc1ccccc1 [Compound 4e, N-(4-(2-(benzylamino)-2-oxoethyl)phenyl)-3-chlorobenzamide]
phosphokinase signal after 4e exposure, C-Jun (C-Jun; HL60 cell lysate, treated): 1811.31
Change in Signal, C-Jun (C-Jun; treated vs untreated HL60): 829.81
% Change, C-Jun (C-Jun; treated vs untreated HL60, Ser63 phosphorylation increase): 84% and 84.55%
Mean Final Score (Ros): 2.0991
Mean Kinase Statistic (Ros): -0.9704
Mean Significance Score (Ros): 0.9578
Mean Specificity Score (Ros): 1.1413
Mean Final Score (Tyro3/Sky): 1.8204
Mean Kinase Statistic (Tyro3/Sky): -0.5274
Mean Significance Score (Tyro3/Sky): 1.2459
Mean Specificity Score (Tyro3/Sky): 0.5745
